The values below come from patent publication US7825103B2, “Pyrimidine nucleoside compound or its salt” (Taiho Pharmaceutical Co., Ltd., priority 2005, dated 2010).

As a reminder, the melting point is the temperature, or range, at which the solid turns liquid.

Series [1] relates to Human large intestine cancer cell strain KM20C. Description: Anti-tumor test using nude mouse subcutaneous implantation system with peroral administration of CNDAC compound. Format: in vivo, BALB/cA Jcl-nu mice. The following applies: peroral once a day for 14 days, dose equivalent by mole to 18 mg/kg/day of CNDAC, day 29 after grouping, KM20C subcutaneous implant; for inhibition in vivo: Mus musculus, sc, 696 h, read-out: IR (%) tumor growth inhibition rate. The procedure: Human large intestine cancer cell strain KM20C was subcutaneously subcultured in BALB/cA Jcl-nu mice (CLEA Japan, Inc.), and the resultant cancer tissues were cut into 2 mm dice fragments. Each of the fragments was subcutaneously implanted to a 6-week-old BALB/cA Jcl-nu mouse at the back thereof. On day 14 after the implantation, large and small diameters of the resultant tumor were measured, and the volume of the tumor was calculated by the following equation. The mice were grouped (6 animals per group) so that the groups were roughly equal in terms of average tumor volume. Vt=½(Vl)×(Vs)^2 (Equation 1) In the equation, Vt represents tumor volume, Vl represents large diameter of tumor, and Vs represents small diameter of tumor.
Each CNDAC compound was dissolved or suspended in 0.5% hydroxypropyl methyl cellulose solution which had been buffered with 100 mM citrate buffer (pH 6.0). From the next day after grouping, the mixture was perorally administered to each mouse once a day for consecutive 14 days in a dose which is equivalent, by mole, to 18 mg/kg/day of CNDAC.
On day 29 after the grouping, large and small diameters of the subcutaneously implanted tumor of each mouse were measured, and relative tumor volume (RTV) and inhibition rate (IR) were calculated by the following equations to evaluate anti-tumor effect of the compound. RTV=Vt1/Vt2 (Equation 2) In the equation, RTV represents ratio of tumor volume, Vt1 represents tumor volume measured on the day of determination, and […]. IR(%)=[1−(RTVtest)/(RTVcont)]×100 (Equation 3) In the equation, IR represents tumor growth inhibition rate, RTVtest represents mean RTV value of a drug-administered group, and RTVcont represents mean RTV value of a non-treatment group.

Counter-ions that a name gives are not always drawn.

As for `CCCCCCCC[Si](C)(C)O[C@H]1[C@H](C#N)[C@H](n2ccc(N)nc2=O)O[C@@H]1CO` [Example 23, 3′-O-(Dimethyl-n-octylsilyl)-2′-cyano-2′-deoxy-1-β-D-arabinofuranosylcytosine], the melting point is 153 to 154 °C.
Consider `CC(C)[Si](OC[C@H]1O[C@@H](n2ccc(N)nc2=O)[C@@H](C#N)[C@@H]1O)(C(C)C)C(C)C` [Example 2, 5′-O-Triisopropylsilyl-2′-cyano-2′-deoxy-1-β-D-arabinofuranosylcytosine], for which the melting point is 177 °C (dec.). For the same molecule, the inhibition in vivo in series [1] amounted to 65%.
`CC(C)[C@H](N)C(=O)OC[C@H]1O[C@@H](n2ccc(N)nc2=O)[C@@H](C#N)[C@@H]1O[Si](C)(C)C(C)(C)C(C)C` (as salt: trifluoroacetate) [Example 31, 3′-O-Dimethylthexylsilyl-5′-O-(L-valyl)-2′-cyano-2′-deoxy-1-β-D-arabinofuranosylcytosine bis(trifluoroacetate)] came in with a melting point of 118 to 120 °C.
`CCCCCCCC[Si](C)(C)OC[C@H]1O[C@@H](n2ccc(N)nc2=O)[C@@H](C#N)[C@@H]1O` [Example 10, 5′-O-(Dimethyl-n-octylsilyl)-2′-cyano-2′-deoxy-1-β-D-arabinofuranosylcytosine] registered a melting point of 142 °C. The inhibition in vivo in series [1] stood at 68%.
`CC(C)[C@H](N)C(=O)OC[C@H]1O[C@@H](n2ccc(N)nc2=O)[C@@H](C#N)[C@@H]1O[Si](C)(C)C(C)(C)C` (as salt: trifluoroacetate) [Example 32, 5′-O-(L-Valyl)-3′-O-(tert-butyldimethylsilyl)-2′-cyano-2′-deoxy-1-β-D-arabinofuranosylcytosine bis(trifluoroacetate)] returned a melting point of 118 to 120 °C.
For the molecule `CC(C)C(C)(C)[Si](C)(C)OC[C@H]1O[C@@H](n2ccc(N)nc2=O)[C@@H](C#N)[C@@H]1O` [Example 6, 5′-O-Dimethylthexylsilyl-2′-cyano-2′-deoxy-1-β-D-arabinofuranosylcytosine], the melting point is 188 °C (dec.). Moreover, in series [1], the inhibition in vivo was 82%.
As for `CC[Si](CC)(OC[C@H]1O[C@@H](n2ccc(N)nc2=O)[C@@H](C#N)[C@@H]1O)C(C)C` [Example 3, 5′-O-Diethylisopropylsilyl-2′-cyano-2′-deoxy-1-β-D-arabinofuranosylcytosine], the “IR (%) tumor growth inhibition rate” value in series [1] came out at 82%.
`C[Si](C)(OC[C@H]1O[C@@H](n2ccc(N)nc2=O)[C@@H](C#N)[C@@H]1O)C1CCCCC1`: the melting point fell in the range of 152 to 153 °C.
Regarding `C[Si](C)(OC[C@H]1O[C@@H](n2ccc(N)nc2=O)[C@@H](C#N)[C@@H]1O)c1ccccc1`, the melting point lay in the range of 139 to 140 °C.
As to `CC[Si](CC)(O[C@H]1[C@H](C#N)[C@H](n2ccc(N)nc2=O)O[C@@H]1CO)C(C)C` [Example 21, 3′-O-Diethylisopropylsilyl-2′-cyano-2′-deoxy-1-β-D-arabinofuranosylcytosine], the melting point was 161 to 163 °C. Besides, the inhibition in vivo in series [1] is 85%.
On the same counts, the results for `CC(C)[Si](O[C@H]1[C@H](C#N)[C@H](n2ccc(N)nc2=O)O[C@@H]1CO)(C(C)C)C(C)C` [Example 27, 3′-O-Triisopropylsilyl-2′-cyano-2′-deoxy-1-β-D-arabinofuranosylcytosine] are 162 to 163 °C and 85%.
Consider `CC(C)(C)[Si](OC[C@H]1O[C@@H](n2ccc(N)nc2=O)[C@@H](C#N)[C@@H]1O)(c1ccccc1)c1ccccc1`, for which the melting point came out at 187 °C.
For the molecule `CC(C)C(C)(C)[Si](C)(C)O[C@H]1[C@H](C#N)[C@H](n2ccc(N)nc2=O)O[C@@H]1CO` (as salt: hydrochloride) [Example 26, 3′-O-Dimethylthexylsilyl-2′-cyano-2′-deoxy-1-β-D-arabinofuranosylcytosine hydrochloride], the melting point was 206 °C (dec.).
Turning to `CC(C)(C)[Si](C)(C)OC[C@H]1O[C@@H](n2ccc(N)nc2=O)[C@@H](C#N)[C@@H]1O` [Example 1, 5′-O-(tert-Butyldimethylsilyl)-2′-cyano-2′-deoxy-1-β-D-arabinofuranosylcytosine], the melting point is 185 °C (dec.). Moreover, the inhibition in vivo in series [1] amounted to 75%.
Turning to `CC(C)[C@H](N)C(=O)OC[C@H]1O[C@@H](n2ccc(N)nc2=O)[C@@H](C#N)[C@@H]1O[Si](C)(C)C(C)(C)C` [Example 32, 5′-O-(L-Valyl)-3′-O-(tert-butyldimethylsilyl)-2′-cyano-2′-deoxy-1-β-D-arabinofuranosylcytosine bis(trifluoroacetate)], the inhibition in vivo in series [1] turned out to be 85%.
The molecule `CC(C)C(C)(C)[Si](C)(C)O[C@H]1[C@H](C#N)[C@H](n2ccc(N)nc2=O)O[C@@H]1CO.CS(=O)(=O)O` displayed a melting point of 203 to 204 °C.
Turning to `CC(C)C(C)(C)[Si](C)(C)OC[C@H]1O[C@@H](n2ccc(N)nc2=O)[C@H](C#N)[C@@H]1O`, the melting point is 187 to 187.5 °C.
On to `CC(C)C[Si](CC(C)C)(CC(C)C)O[C@H]1[C@H](C#N)[C@H](n2ccc(N)nc2=O)O[C@@H]1CO`, for which the melting point lay in the range of 101 to 102 °C.
In turn, `CC(C)(C)[Si]1(C(C)(C)C)OC[C@H]2O[C@@H](n3ccc(N)nc3=O)[C@@H](C#N)[C@@H]2O1` [Example 18, 3′,5′-O-(Di-tert-butylsilanediyl)-2′-cyano-2′-deoxy-1-β-D-arabinofuranosylcytosine] had a melting point of 139 to 140 °C. Further, in series [1], the inhibition in vivo came out at 69%.
Consider `CC(C)[C@H](N)C(=O)OC[C@H]1O[C@@H](n2ccc(N)nc2=O)[C@@H](C#N)[C@@H]1O[Si](C)(C)C(C)(C)C(C)C` [Example 31, 3′-O-Dimethylthexylsilyl-5′-O-(L-valyl)-2′-cyano-2′-deoxy-1-β-D-arabinofuranosylcytosine bis(trifluoroacetate)], for which the inhibition in vivo in series [1] was determined as 89%.
For `CC(C)C(C)(C)[Si](C)(C)O[C@H]1[C@@H](C#N)[C@H](n2ccc(N)nc2=O)O[C@@H]1CO`, the melting point is 179 to 182 °C.
`CC(C)C[Si](CC(C)C)(CC(C)C)OC[C@H]1O[C@@H](n2ccc(N)nc2=O)[C@@H](C#N)[C@@H]1O` [Example 7, 5′-O-Triisobutylsilyl-2′-cyano-2′-deoxy-1-β-D-arabinofuranosylcytosine] registered a melting point of 152 °C. Moreover, the inhibition in vivo in series [1] was determined as 79%.
For the molecule `N#C[C@H]1[C@H](O)[C@@H](CO[Si](c2ccccc2)(c2ccccc2)c2ccccc2)O[C@H]1n1ccc(N)nc1=O`, the melting point was 203 °C (dec.).
The same measure, in the same setting: the value for `CC(C)C(C)(C)[Si](C)(C)O[C@H]1[C@H](C#N)[C@H](n2ccc(N)nc2=O)O[C@@H]1CO.O=C(O)C(F)(F)F` [Example 25, 3′-O-Dimethylthexylsilyl-2′-cyano-2′-deoxy-1-β-D-arabinofuranosylcytosine trifluoroacetate] was 151 to 154 °C.
For `CC(C)(C)[Si](C)(C)O[C@H]1[C@H](C#N)[C@H](n2ccc(N)nc2=O)O[C@@H]1CO.O=C(O)C(F)(F)F` [Example 24, 3′-O-(tert-Butyldimethylsilyl)-2′-cyano-2′-deoxy-1-β-D-arabinofuranosylcytosine trifluoroacetate], the melting point lay in the range of 163 to 165 °C. For the same molecule, the inhibition in vivo in series [1] was found to be 83%.
`N#C[C@H]1[C@H](O)[C@@H](CO[Si](Cc2ccccc2)(Cc2ccccc2)Cc2ccccc2)O[C@H]1n1ccc(N)nc1=O`: the melting point was 188 °C (dec.).
